# Test results from US8349836B2, “Phthalazine derivatives as inhibitors of protein kinase” (priority 2006, dated 2013).
# Target: p70S6K(h) (Homo sapiens, UniProt P23443)
# Assay: Enzyme Inhibition Assay (p70S6K(h))
# Type: biochemical
# Details: at 0.3 μM concentration
# Description: Enzyme Inhibition Assay (p70S6K(h))
# In a final reaction volume of 25 uL, p70S6K(h) (5-10 mU) is incubated with 8 mM MOPS pH 7.0, 0.2 mM EDTA, 100 iM KKRNRTLTV, 10 mM MgAcetate and [gamma-33P-ATP] (specific activity approx. 500 cpm/pmol, concentration as required). The reaction is initiated by the addition of the MgATP mix. After incubation for 40 minutes at room temperature, the reaction is stopped by the addition of 5 uL of a 3% phosphoric acid solution. 10 uL of the reaction is then spotted onto a P30 filtermat and washed three times for 5 minutes in 75 mM phosphoric acid and once in methanol prior to drying and scintillation counting.
# Chain of p70S6K(h) (P23443 whole entry): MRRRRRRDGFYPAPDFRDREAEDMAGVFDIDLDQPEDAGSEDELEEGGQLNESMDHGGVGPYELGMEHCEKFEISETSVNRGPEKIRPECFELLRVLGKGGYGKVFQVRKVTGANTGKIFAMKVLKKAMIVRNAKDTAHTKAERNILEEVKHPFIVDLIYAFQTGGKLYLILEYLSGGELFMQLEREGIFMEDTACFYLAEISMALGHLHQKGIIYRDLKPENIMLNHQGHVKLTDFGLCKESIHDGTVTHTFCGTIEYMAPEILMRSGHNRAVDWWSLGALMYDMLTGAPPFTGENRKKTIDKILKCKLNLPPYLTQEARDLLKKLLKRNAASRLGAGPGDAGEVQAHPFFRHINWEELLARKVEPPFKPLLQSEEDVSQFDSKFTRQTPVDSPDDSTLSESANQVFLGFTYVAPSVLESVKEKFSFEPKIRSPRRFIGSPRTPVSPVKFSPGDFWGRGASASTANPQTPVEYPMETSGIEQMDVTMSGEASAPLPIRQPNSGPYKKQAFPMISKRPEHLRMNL
row,inhibition at 0.3 µM,Compound
1,> 50%,"O=c1[nH]nc(Cl)c2cc(NCc3cccc4c3OCCCO4)ccc12 [Example 107, 4-Chloro-6-[(3,4-dihydro-2H-benzo[b][1,4]dioxepin-6-ylmethyl)-amino]-2H-phthalazin-1-one]"
2,> 50%,"O=c1[nH]nc(Cl)c2cc(N3CCN(c4ccccc4)CC3)ccc12 [Example 126, 4-Chloro-6-(4-phenyl-piperazin-1-yl)-2H-phthalazin-1-one]"
3,> 50%,"O=C(Nc1cccc(C(F)(F)F)c1)c1ccc2c(O)nnc(Cl)c2c1 [Example 26, 4-Chloro-1-hydroxy-phthalazine-6-carboxylic acid (3-trifluoromethyl-phenyl)-amide]"
4,> 50%,"O=C(Nc1cccc(C(F)(F)F)c1)c1ccc2c(O)nnc(I)c2c1 [Example 42, 4-Iodo-1-hydroxy-phthalazine-6-carboxylic acid (3-trifluoromethyl-phenyl)-amide]"
5,> 50%,"O=c1[nH]nc(Cl)c2ccc(Nc3cccc(C(F)(F)F)c3)cc12 [Example 64, 4-Chloro-7-(3-trifluoromethyl-phenylamino)-2H-phthalazin-1-one]"
6,> 50%,"Oc1nnc(Cl)c2cc(NCc3cccc(C(F)(F)F)c3)ccc12 [Example 24, 4-chloro-6-(3-trifluoromethyl-benzylamino)-phthalazin-1-ol]"
